Source: ChEMBL document CHEMBL3045025, “Exploring structural requirement and binding interactions of -amyloid cleavage enzyme inhibitors using molecular modeling techniques” (Med Chem Res, 2013)

Biological target: Beta-secretase 1 (Homo sapiens, UniProt P56817)
Assay: Inhibition of BACE (unknown origin)

Beta-secretase 1, sequence (P56817 whole entry): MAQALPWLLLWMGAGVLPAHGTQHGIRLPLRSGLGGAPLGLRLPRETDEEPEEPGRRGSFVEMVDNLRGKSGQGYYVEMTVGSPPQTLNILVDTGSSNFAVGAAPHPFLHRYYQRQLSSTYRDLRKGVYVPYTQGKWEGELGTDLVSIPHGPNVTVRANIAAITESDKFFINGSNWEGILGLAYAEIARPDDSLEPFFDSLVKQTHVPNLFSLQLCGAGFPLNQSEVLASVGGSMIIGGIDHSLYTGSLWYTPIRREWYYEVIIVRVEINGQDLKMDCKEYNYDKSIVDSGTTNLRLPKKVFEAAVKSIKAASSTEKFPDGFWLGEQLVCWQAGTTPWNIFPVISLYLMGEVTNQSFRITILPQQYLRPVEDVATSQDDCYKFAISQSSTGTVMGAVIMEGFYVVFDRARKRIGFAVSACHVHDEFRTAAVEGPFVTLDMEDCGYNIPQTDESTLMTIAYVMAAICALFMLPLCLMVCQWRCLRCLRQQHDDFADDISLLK

Row | Structure (SMILES) | Ki
1 | CC(C)C[C@H](NCC(=O)[C@H](CC(N)=O)NC(=O)OC(C)(C)C)[C@@H](O)C[C@@H](C)C(=O)N[C@@H](C)C(=O)NCc1ccccc1 | 22.4 µM
2 | CC(C)C[C@H](NCC(=O)[C@@H](CCS(C)(=O)=O)NC(=O)[C@@H](NC(=O)OC(C)(C)C)C(C)C)[C@@H](O)C[C@@H](C)C(=O)N[C@@H](C(=O)NCc1ccccc1)C(C)C | 8 µM
3 | CSCC[C@@H](NC(=O)[C@@H](NC(=O)OC(C)(C)C)C(C)C)C(=O)CN[C@@H](CC(C)C)[C@@H](O)C[C@@H](CC(C)C)C(=O)N[C@@H](C(=O)NCc1ccccc1)C(C)C | 10.5 µM
4 | CC(C)C[C@H](NCC(=O)[C@H](CC(N)=O)NC(=O)OC(C)(C)C)[C@@H](O)C[C@@H](C)C(=O)N[C@H](C(=O)NCc1ccccc1)C(C)C | 3.13 µM
5 | CC(C)C[C@H](NCC(=O)[C@H](CS(C)(=O)=O)NC(=O)OC(C)(C)C)[C@@H](O)C[C@@H](C)C(=O)N[C@H](C(=O)NCc1ccccc1)C(C)C | 1.13 µM
6 | CC(C)C[C@H](NCC(=O)[C@H](CC(N)=O)NC(=O)[C@@H](NC(=O)OC(C)(C)C)C(C)C)[C@@H](O)C[C@@H](C)C(=O)N[C@@H](C)C(=O)NCc1ccccc1 | 61.4 µM
7 | CC(C)C[C@H](NCC(=O)[C@H](CC(N)=O)NC(=O)[C@@H](NC(=O)OC(C)(C)C)C(C)C)[C@@H](O)C[C@@H](C)C(=O)N[C@@H](C(=O)NCc1ccccc1)C(C)C | 5.9 µM
8 | CSC[C@@H](NC(=O)[C@@H](NC(=O)OC(C)(C)C)C(C)C)C(=O)CN[C@@H](CC(C)C)[C@@H](O)C[C@@H](C)C(=O)N[C@H](C(=O)NCc1ccccc1)C(C)C | 50.1 µM
9 | CC(C)C[C@H](NCC(=O)[C@H](CS(C)(=O)=O)NC(=O)[C@@H](NC(=O)OC(C)(C)C)C(C)C)[C@@H](O)C[C@@H](C)C(=O)N[C@@H](C(=O)NCc1ccccc1)C(C)C | 9.4 µM
10 | CSCC[C@@H](NC(=O)OC(C)(C)C)C(=O)CN[C@@H](CC(C)C)[C@@H](O)C[C@@H](C)C(=O)N[C@H](C(=O)NCc1ccccc1)C(C)C | 5.81 µM
11 | CSCC[C@@H](NC(=O)[C@@H](NC(=O)OC(C)(C)C)C(C)C)C(=O)CN[C@@H](CC(C)C)[C@@H](O)C[C@@H](C)C(=O)NC(C(=O)NCc1ccccc1)C(C)C (single isomer, unassigned) | 2.5 µM
